The record followed here is PubChem BioAssay (NCI).

Test systems include BT-549 breast; OVCAR-4 ovarian; K-562 leukemia; MDA-MB-435; CAKI-1 renal; SF-539 CNS; HCT-15 colon; TK-10 renal; MALME-3M melanoma; HCT-116 colon.
Holding throughout (assay): NCI tumour cell line growth inhibition, 48 h

Each structure is given as a SMILES string. Several values for one entry are separate records, joined by “and”; a condition that tells them apart may be missing. Equal values may be shown once.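 Grown in 96-well plates, cells were treated for 48 hours with each compound at five concentrations. Insufficient inhibition: endpoint recorded as highest concentration tested. At the GI50, growth is halved. TGI marks complete inhibition of growth.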 A value given as a limit tells only on which side of the number the result lay.

In the case of `CC(C)c1ccc2c(c1)c(SC(C)(C)C)c(CC(C)(C)C(=O)O)n2Cc1ccc(Cl)cc1`, the GI50 in the experiment with BT-549 breast is 9.79 µM; in the experiment with OVCAR-4 ovarian, 16.9 µM; with K-562 leukemia, 7.48 µM; in the experiment on MDA-MB-435, 10.2 µM; in the experiment on CAKI-1 renal, 10.8 µM; in the experiment with SF-539 CNS, 9.05 µM. Moreover, the GI50 in the experiment on HCT-15 colon is 8.8 µM; in the experiment with TK-10 renal it was 15.2 µM; with MALME-3M melanoma, 17.6 µM; with HCT-116 colon, 9.1 µM. Besides, the TGI in the experiment with BT-549 breast came out at 22.5 µM; in the experiment with OVCAR-4 ovarian it was 49 µM; with K-562 leukemia it was 37.8 µM; in the experiment with MDA-MB-435, 26.1 µM; with CAKI-1 renal it was 25.8 µM; with SF-539 CNS it was 21.8 µM. For the same compound, the TGI was determined as 23.4 µM with HCT-15 colon, 30.6 µM in the experiment with TK-10 renal, 34 µM in the experiment on MALME-3M melanoma and 25.6 µM in the experiment with HCT-116 colon.

As for `COc1ccc(-c2nn3ncccc3c2-c2ccnc(Nc3cccc(C(F)(F)F)c3)n2)cc1`, the GI50 in the experiment with BT-549 breast is 12.4 µM; in the experiment with OVCAR-4 ovarian, 8.54 µM; in the experiment with K-562 leukemia, 8.04 µM; in the experiment with MDA-MB-435, 10.1 µM; with CAKI-1 renal it was 7 µM; in the experiment with SF-539 CNS, 13.8 µM. The GI50 is 7.97 µM in the experiment with HCT-15 colon, 8.49 µM in the experiment on TK-10 renal, 10.2 µM in the experiment with MALME-3M melanoma and 7.99 µM with HCT-116 colon. Further, the TGI with BT-549 breast, with OVCAR-4 ovarian, in the experiment with K-562 leukemia, in the experiment on MDA-MB-435, in the experiment on CAKI-1 renal and in the experiment with SF-539 CNS was more than 25 µM in each case. The TGI is more than 25 µM with HCT-15 colon, more than 22.5 µM with TK-10 renal, more than 25 µM in the experiment on MALME-3M melanoma and more than 25 µM in the experiment with HCT-116 colon.

For the compound `COc1ccc2c(c1)c(-c1cc(-c3cn(C)c4ccc(OC)cc34)[nH]n1)cn2C`, the GI50 in the experiment on BT-549 breast, in the experiment with OVCAR-4 ovarian, in the experiment on K-562 leukemia, with MDA-MB-435, in the experiment with CAKI-1 renal and in the experiment on SF-539 CNS was more than 100 µM throughout. The GI50 in the experiment with HCT-15 colon, in the experiment on TK-10 renal, in the experiment with MALME-3M melanoma and in the experiment with HCT-116 colon was more than 100 µM in each case. For the same compound, the TGI with BT-549 breast, with OVCAR-4 ovarian, in the experiment on K-562 leukemia, with MDA-MB-435, in the experiment on CAKI-1 renal and with SF-539 CNS was more than 100 µM throughout. Moreover, the TGI in the experiment on HCT-15 colon, in the experiment with TK-10 renal, in the experiment with MALME-3M melanoma and in the experiment on HCT-116 colon was more than 100 µM in each case.

Take `Fc1ccc(-c2cc(-c3cn[nH]c3-c3ccccn3)ccn2)cc1`: the GI50 in the experiment with BT-549 breast, in the experiment with OVCAR-4 ovarian, with K-562 leukemia, in the experiment with MDA-MB-435, in the experiment with CAKI-1 renal and in the experiment on SF-539 CNS was more than 25 µM in each case. Moreover, the GI50 with HCT-15 colon is more than 25 µM; in the experiment on TK-10 renal, more than 25 µM; in the experiment with MALME-3M melanoma, more than 25 µM; in the experiment on HCT-116 colon, more than 17.3 µM. In addition, the TGI in the experiment with BT-549 breast, in the experiment with OVCAR-4 ovarian, with K-562 leukemia, in the experiment with MDA-MB-435, in the experiment on CAKI-1 renal and with SF-539 CNS was more than 25 µM throughout. Moreover, the TGI in the experiment on HCT-15 colon, with TK-10 renal, with MALME-3M melanoma and in the experiment with HCT-116 colon was more than 25 µM throughout.

On to `C=C[C@@]1(C)CC(=O)[C@]2(O)[C@@]3(C)[C@@H](O)CCC(C)(C)[C@@H]3[C@H](O)[C@@H](OC(C)=O)[C@@]2(C)O1`, for which the TGI in the experiment on BT-549 breast, with OVCAR-4 ovarian, with K-562 leukemia, in the experiment with MDA-MB-435, with CAKI-1 renal and in the experiment on SF-539 CNS was more than 100 µM each time. The TGI in the experiment with HCT-15 colon, in the experiment on TK-10 renal, with MALME-3M melanoma and in the experiment with HCT-116 colon was more than 100 µM throughout.

For `Oc1cccc(-c2nc(N3CCOCC3)c3oc4ncccc4c3n2)c1`, the GI50 with BT-549 breast is 0.0515 µM and 0.036 µM; in the experiment with OVCAR-4 ovarian, 0.354 µM and 0.228 µM; in the experiment on K-562 leukemia it was 1.35 µM and 2.18 µM; with MDA-MB-435, 0.122 µM and 0.0675 µM; in the experiment on CAKI-1 renal, 0.318 µM and 0.342 µM; in the experiment on SF-539 CNS, 0.137 µM and 0.131 µM. Moreover, the GI50 in the experiment on HCT-15 colon is 0.125 µM and 0.112 µM; in the experiment with TK-10 renal it was 1.26 µM and 1.51 µM; in the experiment on MALME-3M melanoma, 0.0373 µM and 0.0287 µM; in the experiment on HCT-116 colon it was 0.53 µM and 0.426 µM. The TGI was 1.18 µM and 1.15 µM with BT-549 breast; 4.12 µM and 2.9 µM with OVCAR-4 ovarian; more than 100 µM in the experiment on K-562 leukemia; 0.847 µM and 0.784 µM with MDA-MB-435; 2.24 µM and 7.38 µM with CAKI-1 renal; 0.594 µM and 0.635 µM with SF-539 CNS. The TGI in the experiment on HCT-15 colon is more than 100 µM; in the experiment on TK-10 renal it was 4.01 µM and 4.58 µM; in the experiment with MALME-3M melanoma, 0.395 µM and 0.264 µM; in the experiment on HCT-116 colon, more than 100 µM.
